Laboratory results: patent US10828317B2, “Method of treating bacterial infections” (priority 2016, dated 2020)
Where two headings read alike, the source gives them in different places.

Experiments:
E. coli EN001 = assay: MIC, WT (EN001 = EN0001, ATCC 25922); type: cell-based, Escherichia coli
Citrobacter sp. EN0465 = assay: MIC; type: cell-based; conditions: Citrobacter, read-out: MIC
P. aeruginosa EN0422 = assay: MIC; type: cell-based, Pseudomonas aeruginosa; conditions: Pseudomonas aeruginosa, read-out: MIC
S. aureus EN008 = assay: MIC, Gram-positive control; type: cell-based, Staphylococcus aureus; conditions: Staphylococcus aureus, read-out: MIC
K. pneumoniae EN0249 = assay: MIC, colistinR; type: cell-based; conditions: Klebsiella pneumoniae, EN0249, combination didanosine+trimethoprim+uridine, Table 20; read-out: MIC
S. flexneri APV00907 = assay: MIC and antibiogram; type: cell-based; conditions: Shigella flexneri, Table 22A
Description: Inhibition of Heliobacter is important in view of increasing resistance and its association to gastric cancer.

E. coli EN012 = assay: MIC, WT; type: cell-based, Escherichia coli; conditions: Escherichia coli, read-out: MIC
P. aeruginosa EN014 = assay: MIC, WT; type: cell-based, Pseudomonas aeruginosa; conditions: Pseudomonas aeruginosa, read-out: MIC
E. coli EN0137 = assay: MIC, ESBL (CTX-M-15); type: cell-based; conditions: Escherichia coli, EN0137, combination didanosine+trimethoprim+uridine, Table 20; read-out: MIC
K. pneumoniae EN0463 = assay: MIC; type: cell-based, Klebsiella pneumoniae; conditions: Klebsiella pneumoniae, read-out: MIC
K. pneumoniae EN0245 = assay: MIC, colistinR; type: cell-based; conditions: Klebsiella pneumoniae, EN0245, combination didanosine+trimethoprim+uridine, Table 20; read-out: MIC
P. mirabilis EN0457 = assay: MIC; type: cell-based, Proteus mirabilis; conditions: Proteus mirabilis, read-out: MIC
[1] = tested on: A. pittii or A. nosocomialis EN0180; assay: MIC; type: cell-based, Acinetobacter pittii or nosocomialis; conditions: read-out: MIC
E. coli EN003 = assay: microbe, parasite or virus in culture; type: cell-based, Escherichia coli; conditions: Escherichia coli, EN003, combination didanosine+trimethoprim+uridine, Table 10
E. coli B EN0458 = assay: MIC; type: cell-based, Escherichia coli B; conditions: Escherichia coli, read-out: MIC
P. aeruginosa EN0459 = assay: MIC; type: cell-based, Pseudomonas aeruginosa; conditions: Pseudomonas aeruginosa, read-out: MIC
K. pneumoniae EN006 = assay: MIC, WT (EN006 = EN0006, ATCC 13883); type: cell-based, Klebsiella pneumoniae; conditions: Klebsiella pneumoniae, EN006, Combination 1 AZT+trimethoprim+uridine, Table 16; read-out: MIC

With O=c1ccn([C@@H]2O[C@H](CO)[C@@H](O)[C@H]2O)c(=O)[nH]1 [Uridine, uridine] the MIC (E. coli EN001; Escherichia coli, EN001, Combination 1 AZT+trimethoprim+uridine, Table 16, read-out: MIC) was 6.4 µg/mL, the MIC (E. coli EN001; Escherichia coli, EN001, combination AZT+trimethoprim+uridine, Table 6, read-out: MIC) was 16 µg/mL and the MIC (E. coli EN001; Escherichia coli, EN001, combination FdUrd+trimethoprim+uridine, Table 8, read-out: MIC) was 13 µg/mL. It also gave an MIC (E. coli EN001; Escherichia coli, EN001, combination didanosine+trimethoprim+uridine, Table 10, read-out: MIC) of 13 µg/mL, an MIC (E. coli EN001; combination AZT+trimethoprim+uridine, Table 17B) of 13 µg/mL and an MIC (Citrobacter sp. EN0465; SP.EN0465, Combination 1 AZT+trimethoprim+uridine, Table 16) of over 400 µg/mL. For the same compound, the MIC (Citrobacter sp. EN0465; SP.EN0465, Combination 2 AZT+trimethoprim+uridine+thymidine, Table 16) was over 400 µg/mL, the MIC (Citrobacter sp. EN0465; SP.EN0465, combination AZT+trimethoprim+uridine, Table 6) was over 1000 µg/mL and the MIC (Citrobacter sp. EN0465; SP.EN0465, combination FdUrd+trimethoprim+uridine, Table 8) was over 400 µg/mL. For the same compound, the MIC (Citrobacter sp. EN0465; SP.EN0465, combination didanosine+trimethoprim+uridine, Table 10) was over 400 µg/mL, the MIC (P. aeruginosa EN0422; EN0422, Combination 1 AZT+trimethoprim+uridine, Table 16) was over 400 µg/mL and the MIC (P. aeruginosa EN0422; EN0422, Combination 2 AZT+trimethoprim+uridine+thymidine, Table 16) was over 400 µg/mL. The MIC (P. aeruginosa EN0422; EN0422, combination AZT+trimethoprim+uridine, Table 6) was over 1000 µg/mL, the MIC (P. aeruginosa EN0422; EN0422, combination FdUrd+trimethoprim+uridine, Table 8) was over 400 µg/mL and the MIC (P. aeruginosa EN0422; EN0422, combination didanosine+trimethoprim+uridine, Table 10) was over 400 µg/mL. It also gave an MIC (S. aureus EN008; EN008, Combination 2 AZT+trimethoprim+uridine+thymidine, Table 16) of over 400 µg/mL, an MIC (S. aureus EN008; EN008, combination FdUrd+trimethoprim+uridine, Table 8) of under 0.8 µg/mL and an MIC (K. pneumoniae EN0249) of over 400 µg/mL. It also gave an MIC (S. flexneri APV00907; APV00907, combination AZT+trimethoprim+uridine) of 200 µg/mL, an MIC (S. flexneri APV00907; APV00907, combination FdUrd+trimethoprim+uridine) of over 400 µg/mL and an MIC (E. coli EN012; EN012, combination FdUrd+trimethoprim+uridine, Table 8) of 3 µg/mL. It also gave an MIC (E. coli EN012; EN012, combination didanosine+trimethoprim+uridine, Table 10) of 6 µg/mL, an MIC (P. aeruginosa EN014; EN014, Combination 1 AZT+trimethoprim+uridine, Table 16) of over 400 µg/mL and an MIC (P. aeruginosa EN014; EN014, Combination 2 AZT+trimethoprim+uridine+thymidine, Table 16) of over 400 µg/mL. The MIC (P. aeruginosa EN014; EN014, combination AZT+trimethoprim+uridine, Table 6) was over 1000 µg/mL, the MIC (P. aeruginosa EN014; EN014, combination FdUrd+trimethoprim+uridine, Table 8) was over 400 µg/mL and the MIC (P. aeruginosa EN014; EN014, combination didanosine+trimethoprim+uridine, Table 10) was over 400 µg/mL. It also gave an MIC (E. coli EN0137) of over 400 µg/mL, an MIC (K. pneumoniae EN0463; EN0463, Combination 1 AZT+trimethoprim+uridine, Table 16) of 12.5 µg/mL and an MIC (K. pneumoniae EN0463; EN0463, combination AZT+trimethoprim+uridine, Table 6) of 16 µg/mL. For the same compound, the MIC (K. pneumoniae EN0245) was over 400 µg/mL, the MIC (P. mirabilis EN0457; EN0457, Combination 1 AZT+trimethoprim+uridine, Table 16) was 200 µg/mL and the MIC (P. mirabilis EN0457; EN0457, Combination 2 AZT+trimethoprim+uridine+thymidine, Table 16) was over 400 µg/mL. The MIC (P. mirabilis EN0457; EN0457, combination AZT+trimethoprim+uridine, Table 6) was 500 µg/mL, the MIC ([1]; Combination 1 AZT+trimethoprim+uridine, Table 16) was over 400 µg/mL and the MIC ([1]; Combination 2 AZT+trimethoprim+uridine+thymidine, Table 16) was over 400 µg/mL. For the same compound, the MIC ([1]; combination AZT+trimethoprim+uridine, Table 6) was over 1000 µg/mL, the MIC ([1]; combination FdUrd+trimethoprim+uridine, Table 8) was 400 µg/mL and the MIC ([1]; combination didanosine+trimethoprim+uridine, Table 10) was over 400 µg/mL. It also gave an MIC (E. coli EN003) of 6 µg/mL, an MIC (E. coli B EN0458; BEN0458, combination FdUrd+trimethoprim+uridine, Table 8) of 3 µg/mL and an MIC (E. coli B EN0458; BEN0458, combination didanosine+trimethoprim+uridine, Table 10) of 3 µg/mL. For the same compound, the MIC (P. aeruginosa EN0459; EN0459, Combination 1 AZT+trimethoprim+uridine, Table 16) was over 400 µg/mL, the MIC (P. aeruginosa EN0459; EN0459, Combination 2 AZT+trimethoprim+uridine+thymidine, Table 16) was over 400 µg/mL and the MIC (P. aeruginosa EN0459; EN0459, combination AZT+trimethoprim+uridine, Table 6) was over 1000 µg/mL. It also gave an MIC (P. aeruginosa EN0459; EN0459, combination FdUrd+trimethoprim+uridine, Table 8) of over 400 µg/mL, an MIC (P. aeruginosa EN0459; EN0459, combination didanosine+trimethoprim+uridine, Table 10) of over 400 µg/mL and an MIC (K. pneumoniae EN006) of 12.5 µg/mL.
